Data set [1] in a line: Stability study: storage in a sealed reagent bottle at -20° C for three months (description, water content, HPLC purity, XRPD). The data set is classed as physicochemical. Further details: HPLC impurity at RRT 0.07 / HPLC impurity at RRT 0.20 / HPLC impurity at RRT 0.85 / HPLC impurity at RRT 0.98 / HPLC impurity at RRT 1.02 / HPLC impurity at RRT 1.07 / HPLC impurity at RRT 1.17 / HPLC impurity at RRT 1.23 / HPLC impurity at RRT 1.31 / HPLC impurity at RRT 1.38 / HPLC impurity at RRT 1.41: unit not given here. Here is the method:
An appropriate amount of the sample of the amorphous as well as RK-1 polymorphic form of Lurbinectedin obtained in examples 5 to 9 was placed in a reagent bottle at-20° C. under a sealed condition for the period of three months to perform a stability test. X-ray powder diffraction pattern, HPLC purity as well as DSC Chromatogram of amorphous as well as RK-1 polymorphic form of Lurbinectedin was evaluated again after storing for period of 3 months. Result of the stability study of both amorphous (Obtained in Example 5) as well as RK-1 polymorphic form of Lurbinectedin (Obtained in Example 6) has been tabulated in Tables 1-2 given below. […] Characteristic peaks in the XRPD pattern and DSC chromatogram of RK-1 polymorphic form of Lurbinectedin obtained initially as well as after storing for the period of three months have been tabulated in Table 3 given below.

Data set [2] in a line: Chemical stability under long term and accelerated storage conditions. Format: physicochemical.
[3] abbreviates: at 3 months (A/3M), -20° C, sealed.

The values below come from US20250002506A1, “IMPROVED PROCESS FOR THE PREPARATION OF LURBINECTEDIN AND ITS MORPHS THEREOF” (RK Pharma Inc., priority 2021, published 2025).

As for `COc1ccc2[nH]c3c(c2c1)CCN[C@]31CS[C@@H]2c3c(OC(C)=O)c(C)c4c(c3[C@H](COC1=O)N1[C@@H]2[C@H]2c3c(cc(C)c(OC)c3O)C[C@@H]([C@@H]1O)N2C)OCO4` [Amorphous form of Lurbinectedin, Lurbinectedin], in data set [1] (setting [3]), the “HPLC impurity at RRT 0.07” value was found to be 0.06, the “HPLC impurity at RRT 0.20” value came to 0.02, the “HPLC impurity at RRT 0.85” value stood at 0.01 and the “HPLC impurity at RRT 0.98” value was 0.03. Besides, in data set [1] (setting [3]), the “HPLC impurity at RRT 1.02” value is reported as 0.05, the “HPLC impurity at RRT 1.07” value was determined as 0.02, the “HPLC impurity at RRT 1.31” value worked out at 0.02 and the “HPLC impurity at RRT 1.38” value turned out to be 0.01. In addition, in data set [1] (setting [3]), the “HPLC impurity at RRT 1.41” value is recorded as 0.01 and the “HPLC purity, LRBN” value is 99.77%. In data set [1] (at 3 months, -20° C, sealed), the Description entry is reported as “Off white” and the Water content is listed as 9.91%. Also, in data set [1] (initial), the Description entry was “Off white”, the “HPLC impurity at RRT 0.20” value was determined as 0.02, the “HPLC impurity at RRT 0.98” value is 0.03 and the “HPLC impurity at RRT 1.07” value came out at 0.02. In addition, in data set [1] (initial), the “HPLC impurity at RRT 1.17” value came to 0.04; the “HPLC impurity at RRT 1.23” value stood at 0.03; the “HPLC impurity at RRT 1.31” value worked out at 0.02; the “HPLC purity, LRBN” value was 99.81%. In data set [1] (initial), this compound registered a Water content of 9.67%. For the same compound, the “Stability on storage (XRPD pattern after three months same as obtained initially)” value in data set [1] (-20° C, sealed) was “stable on storage”.

As to `COc1ccc2[nH]c3c(c2c1)CCN[C@]31CS[C@@H]2c3c(OC(C)=O)c(C)c4c(c3[C@H](COC1=O)N1[C@@H]2[C@H]2c3c(cc(C)c(OC)c3O)C[C@@H]([C@@H]1O)N2C)OCO4` [Pure Lurbinectedin, Lurbinectedin], the “Period for which chemically stable” value in data set [2] was “about 6 months”.

`COc1ccc2[nH]c3c(c2c1)CCN[C@]31CS[C@@H]2c3c(OC(C)=O)c(C)c4c(c3[C@H](COC1=O)N1[C@@H]2[C@H]2c3c(cc(C)c(OC)c3O)C[C@@H]([C@@H]1O)N2C)OCO4` [polymorphic form RK-1 of Lurbinectedin, Lurbinectedin]: the Description entry in data set [1] (after 1 month, -20° C, sealed) is listed as “Off white powder”. In data set [1] (setting [3]), the “HPLC impurity at RRT 0.07” value is reported as 0.06, the “HPLC impurity at RRT 0.20” value was determined as 0.02, the “HPLC impurity at RRT 0.85” value is 0.01 and the “HPLC impurity at RRT 0.98” value was 0.03. For the same compound, in data set [1] (setting [3]), the “HPLC impurity at RRT 1.02” value was found to be 0.05, the “HPLC impurity at RRT 1.07” value was found to be 0.02, the “HPLC impurity at RRT 1.31” value is 0.02 and the “HPLC impurity at RRT 1.38” value is given as 0.01. For the same compound, in data set [1] (setting [3]), the “HPLC impurity at RRT 1.41” value is given as 0.01 and the “HPLC purity, LRBN” value came out at 99.77%. For the same compound, in data set [1] (at 3 months, -20° C, sealed), the Description result is given as “Off white” and the Water content came to 10.1%. In data set [1] (at 3 months, -20° C, sealed, listed as RK-1 polymorphic form of Lurbinectedin), the Description entry is given as “Off white powder”. Moreover, in data set [1] (initial), the Description result is recorded as “Off white”, the “HPLC impurity at RRT 0.20” value was 0.03, the “HPLC impurity at RRT 0.98” value is recorded as 0.03 and the “HPLC impurity at RRT 1.07” value was found to be 0.02. In data set [1] (initial), the “HPLC impurity at RRT 1.17” value amounted to 0.04; the “HPLC impurity at RRT 1.23” value is on record as 0.03; the “HPLC impurity at RRT 1.31” value is given as 0.02; the “HPLC purity, LRBN” value stood at 99.86%. The compound also showed a Water content in data set [1] (initial) of 9.69%. The Description result in data set [1] (initial, listed as RK-1 polymorphic form of Lurbinectedin) is “Off white powder”. Moreover, in data set [1] (-20° C, sealed), the “Stability on storage (XRPD pattern after three months same as obtained initially)” value was “stable on storage”.
